The results in this text go back to US20230257396A1, “MACROCYCLES AND THEIR USE” (BLOSSOMHILL THERAPEUTICS, INC., priority 2020, published 2023).

Holding throughout (experiment): KINOMEscan kinase binding assay (Eurofins/DiscoveRx), % Ctrl
Test [1] deals with T1, kinases (Homo sapiens, UniProt P10721, A829P).
T1 construct: purchased Eurofins/DiscoveRx; host or cells: E. coli BL21-derived host (T7 phage display) for most kinases; HEK-293 for the rest
A digest of the protocol: (§1)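 Read-out is qPCR of kinase eluted from ligand-coated streptavidin beads after 1 h room-temperature competition with test compound. Values are % Ctrl at the tested concentration, lower meaning tighter binding.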

Test [2] concerns the target T2, kinases (Homo sapiens, UniProt P00519, F317I).
T2 construct: purchased Eurofins/DiscoveRx; host or cells: E. coli BL21-derived host (T7 phage display) for most kinases; HEK-293 for the rest
In a few lines:
as §1

Test [3] concerns the target T3, kinases (Homo sapiens, UniProt P36888, N841I).
T3 construct: purchased Eurofins/DiscoveRx; host or cells: E. coli BL21-derived host (T7 phage display) for most kinases; HEK-293 for the rest
T3 sequence (P36888 27-993 N841I): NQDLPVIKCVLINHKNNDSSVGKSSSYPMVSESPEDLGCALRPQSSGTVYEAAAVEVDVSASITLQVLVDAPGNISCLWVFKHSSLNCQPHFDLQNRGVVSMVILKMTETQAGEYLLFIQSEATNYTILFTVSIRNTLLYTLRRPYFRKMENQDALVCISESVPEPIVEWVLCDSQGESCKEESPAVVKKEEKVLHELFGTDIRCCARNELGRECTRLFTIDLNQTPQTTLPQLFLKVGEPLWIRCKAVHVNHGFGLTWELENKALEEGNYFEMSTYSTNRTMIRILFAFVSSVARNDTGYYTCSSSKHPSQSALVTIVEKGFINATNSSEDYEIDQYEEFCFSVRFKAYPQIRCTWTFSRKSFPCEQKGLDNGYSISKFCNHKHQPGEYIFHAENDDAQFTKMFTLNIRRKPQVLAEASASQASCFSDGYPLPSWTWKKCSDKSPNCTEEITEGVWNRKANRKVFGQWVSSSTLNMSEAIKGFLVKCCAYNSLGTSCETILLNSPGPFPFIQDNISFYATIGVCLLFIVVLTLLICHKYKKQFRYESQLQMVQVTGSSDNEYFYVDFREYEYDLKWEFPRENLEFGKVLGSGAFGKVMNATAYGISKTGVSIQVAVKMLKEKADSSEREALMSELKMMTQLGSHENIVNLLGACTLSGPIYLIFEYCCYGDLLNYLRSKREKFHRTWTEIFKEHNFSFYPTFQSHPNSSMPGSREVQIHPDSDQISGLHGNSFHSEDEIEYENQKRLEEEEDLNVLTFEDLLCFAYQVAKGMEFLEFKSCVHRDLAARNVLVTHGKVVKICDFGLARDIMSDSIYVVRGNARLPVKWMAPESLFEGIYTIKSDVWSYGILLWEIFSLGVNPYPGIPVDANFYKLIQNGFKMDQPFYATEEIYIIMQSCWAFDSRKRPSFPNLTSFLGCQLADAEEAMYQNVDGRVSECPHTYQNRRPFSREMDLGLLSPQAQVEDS
In a few lines: as §1

For test [4], the target named is T4, kinases (Homo sapiens, UniProt P07949, V804M).
T4 construct: purchased Eurofins/DiscoveRx; host or cells: E. coli BL21-derived host (T7 phage display) for most kinases; HEK-293 for the rest
A digest of the protocol:
as §1

The mark [5] stands for this setting: 1 μM; ABL1(F317I)-nonphosphorylated.
Where [6] appears, read: 1 μM; ABL1(F317I)-phosphorylated.
The mark [7] stands for this setting: target ABL1(F317I)-nonphosphorylated; 1 μM.
Setting [8] is: target ABL1(F317I)-phosphorylated; 1 μM.

T4 sequence (P07949 29-1114 V804M): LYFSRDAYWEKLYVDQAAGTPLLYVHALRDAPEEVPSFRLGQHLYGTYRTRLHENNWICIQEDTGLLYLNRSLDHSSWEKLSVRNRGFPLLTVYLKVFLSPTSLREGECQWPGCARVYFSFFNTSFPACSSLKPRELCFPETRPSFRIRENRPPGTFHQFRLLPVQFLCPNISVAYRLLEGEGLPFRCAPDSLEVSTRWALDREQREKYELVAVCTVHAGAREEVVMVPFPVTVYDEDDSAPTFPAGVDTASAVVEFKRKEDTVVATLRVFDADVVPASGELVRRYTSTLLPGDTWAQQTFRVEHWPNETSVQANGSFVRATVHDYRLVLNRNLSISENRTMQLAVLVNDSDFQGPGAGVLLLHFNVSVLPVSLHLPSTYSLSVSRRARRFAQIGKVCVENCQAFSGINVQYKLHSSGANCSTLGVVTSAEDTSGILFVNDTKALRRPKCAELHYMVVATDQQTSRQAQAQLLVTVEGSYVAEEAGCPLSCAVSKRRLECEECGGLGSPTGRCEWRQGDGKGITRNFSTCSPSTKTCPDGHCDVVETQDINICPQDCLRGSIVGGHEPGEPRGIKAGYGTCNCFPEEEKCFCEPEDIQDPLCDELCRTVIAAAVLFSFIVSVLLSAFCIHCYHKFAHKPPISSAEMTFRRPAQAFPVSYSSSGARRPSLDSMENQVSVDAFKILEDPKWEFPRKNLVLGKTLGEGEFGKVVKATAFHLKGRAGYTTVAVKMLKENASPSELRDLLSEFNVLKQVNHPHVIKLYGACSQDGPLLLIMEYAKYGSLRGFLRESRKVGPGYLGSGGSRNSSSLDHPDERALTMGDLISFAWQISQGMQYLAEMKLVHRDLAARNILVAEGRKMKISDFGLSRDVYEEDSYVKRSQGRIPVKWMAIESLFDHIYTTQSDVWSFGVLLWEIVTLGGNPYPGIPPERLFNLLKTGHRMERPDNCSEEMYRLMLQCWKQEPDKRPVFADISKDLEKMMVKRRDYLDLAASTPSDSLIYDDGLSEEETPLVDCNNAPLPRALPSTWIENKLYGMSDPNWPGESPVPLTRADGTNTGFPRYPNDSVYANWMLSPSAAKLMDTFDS
T2 sequence (P00519 whole entry F317I): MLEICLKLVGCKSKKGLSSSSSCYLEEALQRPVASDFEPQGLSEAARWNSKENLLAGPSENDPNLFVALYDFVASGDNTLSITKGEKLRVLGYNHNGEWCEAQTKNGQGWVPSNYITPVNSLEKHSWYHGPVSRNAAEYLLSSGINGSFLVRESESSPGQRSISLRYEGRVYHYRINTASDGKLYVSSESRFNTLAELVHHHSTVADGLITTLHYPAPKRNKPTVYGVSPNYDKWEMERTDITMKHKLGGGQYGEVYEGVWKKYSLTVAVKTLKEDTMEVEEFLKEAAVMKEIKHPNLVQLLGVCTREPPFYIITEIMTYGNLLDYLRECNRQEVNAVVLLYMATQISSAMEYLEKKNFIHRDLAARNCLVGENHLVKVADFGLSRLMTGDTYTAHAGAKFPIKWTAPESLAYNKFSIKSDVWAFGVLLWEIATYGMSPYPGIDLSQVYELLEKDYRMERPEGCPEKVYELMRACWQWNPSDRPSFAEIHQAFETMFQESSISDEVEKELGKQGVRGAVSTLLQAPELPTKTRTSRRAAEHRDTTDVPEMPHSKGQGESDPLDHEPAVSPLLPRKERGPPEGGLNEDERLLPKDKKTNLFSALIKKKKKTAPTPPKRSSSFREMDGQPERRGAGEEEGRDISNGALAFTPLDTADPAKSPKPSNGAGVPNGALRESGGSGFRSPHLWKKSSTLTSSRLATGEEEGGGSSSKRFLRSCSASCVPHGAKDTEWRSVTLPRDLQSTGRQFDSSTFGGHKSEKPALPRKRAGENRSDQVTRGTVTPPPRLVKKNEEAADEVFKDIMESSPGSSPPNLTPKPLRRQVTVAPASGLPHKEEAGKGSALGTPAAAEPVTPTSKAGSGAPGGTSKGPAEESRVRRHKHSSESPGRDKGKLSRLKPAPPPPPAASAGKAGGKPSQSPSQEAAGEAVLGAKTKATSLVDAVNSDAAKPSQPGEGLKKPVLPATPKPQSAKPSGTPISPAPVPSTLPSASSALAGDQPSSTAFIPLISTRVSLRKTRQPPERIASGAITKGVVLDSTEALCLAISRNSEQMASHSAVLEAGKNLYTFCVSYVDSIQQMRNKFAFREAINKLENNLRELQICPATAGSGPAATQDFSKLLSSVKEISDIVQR
T1 sequence (P10721 26-976 A829P): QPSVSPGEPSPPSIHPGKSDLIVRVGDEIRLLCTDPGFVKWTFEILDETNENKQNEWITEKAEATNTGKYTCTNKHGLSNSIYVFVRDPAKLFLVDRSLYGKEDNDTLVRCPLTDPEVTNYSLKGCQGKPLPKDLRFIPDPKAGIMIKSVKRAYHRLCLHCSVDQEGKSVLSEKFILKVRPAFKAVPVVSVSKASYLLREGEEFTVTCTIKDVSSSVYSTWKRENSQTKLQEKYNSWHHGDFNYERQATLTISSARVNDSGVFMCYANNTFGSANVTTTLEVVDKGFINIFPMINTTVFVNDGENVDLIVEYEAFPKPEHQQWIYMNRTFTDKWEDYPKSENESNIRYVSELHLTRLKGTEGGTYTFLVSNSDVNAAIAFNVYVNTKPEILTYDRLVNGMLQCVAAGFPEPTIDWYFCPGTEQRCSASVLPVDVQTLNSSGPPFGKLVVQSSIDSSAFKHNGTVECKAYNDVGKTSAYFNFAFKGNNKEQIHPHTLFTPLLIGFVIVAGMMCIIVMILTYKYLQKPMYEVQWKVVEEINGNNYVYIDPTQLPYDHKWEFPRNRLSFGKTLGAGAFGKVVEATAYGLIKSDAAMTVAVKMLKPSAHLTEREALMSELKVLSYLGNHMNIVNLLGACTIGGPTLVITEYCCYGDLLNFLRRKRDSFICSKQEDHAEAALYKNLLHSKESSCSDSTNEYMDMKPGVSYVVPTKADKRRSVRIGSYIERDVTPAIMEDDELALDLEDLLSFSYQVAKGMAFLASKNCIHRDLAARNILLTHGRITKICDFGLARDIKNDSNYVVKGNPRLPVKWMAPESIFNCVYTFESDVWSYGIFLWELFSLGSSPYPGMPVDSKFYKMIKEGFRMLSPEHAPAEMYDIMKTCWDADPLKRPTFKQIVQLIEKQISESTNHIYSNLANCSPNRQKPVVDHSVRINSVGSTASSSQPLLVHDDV

`Cc1cc2c([nH]1)/C=C1\C(=O)Nc3ccc(cc31)-c1c(C)n[nH]c1CNCCN(C)C2=O` [Ex. 127, [3a(4)Z]-6,9,16-trimethyl-9,10,11,12,13,14-hexahydro-1,17-(ethanediylidene)pyrazolo[4,3-m]dipyrrolo[3,2-f:3′,4′-i][1,4]diazacyclopentadecine-3,8(2H,5H)-dione]: at kinases [1] (1 μM; KIT(A829P)), the “% Ctrl, KIT(A829P)” value is given as 60 % Ctrl. Moreover, the “% Ctrl, ABL1(F317I)-nonphosphorylated” value on kinases [2] (setting [5]) stood at 2.6 % Ctrl. At kinases [2] (setting [6]), the “% Ctrl, ABL1(F317I)-phosphorylated” value is reported as 5.5 % Ctrl. The “% Ctrl, FLT3(N841I)” value at kinases [3] (1 μM; FLT3(N841I)) was 0.35 % Ctrl. Also, the “% Ctrl, RET(V804M)” value at kinases [4] (1 μM; RET(V804M)) came out at 1.6 % Ctrl.
The corresponding values for `Cc1cc2c([nH]1)/C=C1\C(=O)Nc3ccc(cc31)-c1ccnn1CCNCCNC2=O` [Ex. 43, [19a(20)Z]-2-methyl-5,6,7,8,9,10-hexahydro-15,17-(ethanediylidene)pyrazolo[1,5-g]dipyrrolo[3,4-k:2′,3′-n][1,4,7]triazacyclohexadecine-4,19(1H,18H)-dione] are 77 % Ctrl, 68 % Ctrl, 94 % Ctrl, 98 % Ctrl and 97 % Ctrl.
The corresponding values for `Cc1cc2c([nH]1)/C=C1\C(=O)Nc3ccc(cc31)-c1cnn(C)c1CNCCN(C)C2=O` [Ex. 125, [3a(4)Z]-6,9,14-trimethyl-9,10,11,12,13,14-hexahydro-1,17-(ethanediylidene)pyrazolo[4,3-m]dipyrrolo[3,2-f:3′,4′-i][1,4]diazacyclopentadecine-3,8(2H,5H)-dione] are 2.6 % Ctrl, 0 % Ctrl, 0.75 % Ctrl, 0 % Ctrl and 0 % Ctrl.
The corresponding values for `Cc1cc2c([nH]1)/C=C1\C(=O)Nc3ccc(cc31)-c1ccnn1CCOCCNC2=O` [Ex.39, [19a(20)Z]-2-methyl-6,7,9,10-tetrahydro-1H-15,17-(ethanediylidene)pyrazolo[1,5-d]dipyrrolo[3,4-h:2′,3′-k][1,4,14]oxadiazacyclohexadecine-4,19(5H,18H)-dione] are 99 % Ctrl, 100 % Ctrl, 64 % Ctrl, 83 % Ctrl and 94 % Ctrl.
Turning to `Cc1cc2c([nH]1)/C=C1\C(=O)Nc3ccc(nc31)-c1ccccc1OCCCNC2=O` [Ex.22, [3a(4)Z]-6-methyl-9,10,11,12-tetrahydro-1,18-(ethanediylidene)dipyrrolo[3,2-g:3′,4′-j][1,5,12]benzoxadiazacyclopentadecine-3,8(2H,5H)-dione], the “% Ctrl, KIT(A829P)” value at kinases [1] (1 μM; KIT(A829P)) came out at 100 % Ctrl. For the same compound, on kinases [2] (setting [5]), the “% Ctrl, ABL1(F317I)-nonphosphorylated” value was found to be 88 % Ctrl. Also, the “% Ctrl, ABL1(F317I)-phosphorylated” value at kinases [2] (setting [6]) is 100 % Ctrl. On kinases [3] (1 μM; FLT3(N841I)), the “% Ctrl, FLT3(N841I)” value is given as 65 % Ctrl. In addition, the “% Ctrl, RET(V804M)” value at kinases [4] (1 μM; RET(V804M)) was 93 % Ctrl.
With `Cc1cc2c([nH]1)/C=C1\C(=O)Nc3ccc(cc31)O[C@@H](C)COCCN(C)C2=O` [Ex. 92, [10S,16a(17)Z]-2,5,10-trimethyl-6,7,9,10-tetrahydro-1H-12,14-(ethanediylidene)dipyrrolo[3,2-i:3′,4′-l][1,4,7]dioxazacyclopentadecine-4,16(5H,15H)-dione], on kinases [1] (1 μM; KIT(A829P)), the “% Ctrl, KIT(A829P)” value is given as 100 % Ctrl. Moreover, the “% Ctrl, ABL1(F317I)-nonphosphorylated” value on kinases [2] (setting [5]) came out at 22 % Ctrl. Further, on kinases [2] (setting [6]), the “% Ctrl, ABL1(F317I)-phosphorylated” value turned out to be 89 % Ctrl. Moreover, the “% Ctrl, FLT3(N841I)” value on kinases [3] (1 μM; FLT3(N841I)) came out at 20 % Ctrl. The “% Ctrl, RET(V804M)” value on kinases [4] (1 μM; RET(V804M)) is on record as 43 % Ctrl.
`Cc1nn(C)c2c1-c1ccc3c(c1)/C(=C/c1[nH]ccc1C(=O)N(C)CCCO2)C(=O)N3` [Ex. 150, [3a(4)Z]-9,14,16-trimethyl-10,11,13,14-tetrahydro-2H-1,17-(ethanediylidene)pyrazolo[4,3-m]dipyrrolo[3,2-f:3′,4′-i][1,4]oxazacyclopentadecine-3,8(5H,9H)-dione]: the “% Ctrl, KIT(A829P)” value on kinases [1] (target KIT(A829P); 1 μM) is listed as 96 % Ctrl. Besides, the “% Ctrl, ABL1(F317I)-nonphosphorylated” value at kinases [2] (setting [7]) came to 95 % Ctrl. Besides, the “% Ctrl, ABL1(F317I)-phosphorylated” value on kinases [2] (setting [8]) is 88 % Ctrl. The “% Ctrl, FLT3(N841I)” value at kinases [3] (target FLT3(N841I); 1 μM) came to 19 % Ctrl. Further, the “% Ctrl, RET(V804M)” value on kinases [4] (target RET(V804M); 1 μM) is listed as 68 % Ctrl.
As for `Cc1cc2c([nH]1)/C=C1\C(=O)Nc3cnc(cc31)-c1cnn(C)c1CN(C)CCN(C)C2=O` [Ex. 172, [3a(4)Z]-6,9,12,14-tetramethyl-9,10,11,12,13,14-hexahydro-17,1-(azenometheno)pyrazolo[4,3-m]dipyrrolo[3,2-f:3′,4′-i][1,4]diazacyclopentadecine-3,8(2H,5H)-dione], the “% Ctrl, KIT(A829P)” value at kinases [1] (1 μM; target KIT(A829P)) is 31 % Ctrl. The “% Ctrl, ABL1(F317I)-nonphosphorylated” value at kinases [2] (1 μM; target ABL1(F317I)-nonphosphorylated) turned out to be 24 % Ctrl. Further, the “% Ctrl, ABL1(F317I)-phosphorylated” value on kinases [2] (1 μM; target ABL1(F317I)-phosphorylated) is 9.3 % Ctrl. Besides, the “% Ctrl, FLT3(N841I)” value at kinases [3] (1 μM; target FLT3(N841I)) was 0 % Ctrl. Also, on kinases [4] (1 μM; target RET(V804M)), the “% Ctrl, RET(V804M)” value came out at 0.8 % Ctrl.
On to `Cc1cc2c([nH]1)/C=C1\C(=O)Nc3cc(Cl)c(cc31)OCCO[C@@H](C(=O)N[C@@H]1CCNC1)CN(C)C2=O` [Ex. 136, [7R,16a(17)Z]-19-chloro-2,5-dimethyl-4,16-dioxo-N-[(3R)-pyrrolidin-3-yl]-4,5,6,7,9,10,15,16-octahydro-1H-12,14-(ethanediylidene)dipyrrolo[3,2-i:3′,4′-l][1,4,7]dioxazacyclopentadecine-7-carboxamide], for which, on kinases [1] (1 μM; KIT(A829P)), the “% Ctrl, KIT(A829P)” value is 64 % Ctrl. Also, the “% Ctrl, ABL1(F317I)-nonphosphorylated” value on kinases [2] (setting [5]) is 78 % Ctrl. The “% Ctrl, ABL1(F317I)-phosphorylated” value on kinases [2] (setting [6]) worked out at 66 % Ctrl. The “% Ctrl, FLT3(N841I)” value at kinases [3] (1 μM; FLT3(N841I)) stood at 14 % Ctrl. The “% Ctrl, RET(V804M)” value at kinases [4] (1 μM; RET(V804M)) is reported as 64 % Ctrl.
Turning to `Cc1cc2c([nH]1)/C=C1\C(=O)Nc3cnc(nc31)N(C)CCCOCCN(C)C2=O` [Ex.71, [17a(18)Z]-2,5,12-trimethyl-6,7,9,10,11,12-hexahydro-1H-13,15-(azenometheno)dipyrrolo[3,2-f:3′,4′-i][1,4,11,13]oxatriazacyclohexadecine-4,17(5H,16H)-dione], the “% Ctrl, KIT(A829P)” value at kinases [1] (1 μM; KIT(A829P)) is listed as 100 % Ctrl. Moreover, on kinases [2] (setting [5]), the “% Ctrl, ABL1(F317I)-nonphosphorylated” value is given as 100 % Ctrl. Also, the “% Ctrl, ABL1(F317I)-phosphorylated” value on kinases [2] (setting [6]) is given as 100 % Ctrl. In addition, the “% Ctrl, FLT3(N841I)” value on kinases [3] (1 μM; FLT3(N841I)) was found to be 75 % Ctrl. On kinases [4] (1 μM; RET(V804M)), the “% Ctrl, RET(V804M)” value is 89 % Ctrl.
With `Cc1cc2c([nH]1)/C=C1\C(=O)Nc3cc(Cl)c(cc31)OCCO[C@@H](C(=O)N1CCN(C)CC1)CN(C)C2=O` [Ex. 138, [7R,16a(17)Z]-19-chloro-2,5-dimethyl-7-(4-methylpipearazine-1-carbonyl)-6,7,9,10-tetrahydro-1H-12,14-(ethanediylidene)dipyrrolo[3,2-i:3′,4′-l][1,4,7]dioxazacyclopentadecine-4,16(5H,15H)-dione], on kinases [1] (target KIT(A829P); 1 μM), the “% Ctrl, KIT(A829P)” value came out at 100 % Ctrl. Also, the “% Ctrl, ABL1(F317I)-nonphosphorylated” value at kinases [2] (setting [7]) amounted to 86 % Ctrl. On kinases [2] (setting [8]), the “% Ctrl, ABL1(F317I)-phosphorylated” value is recorded as 100 % Ctrl. Besides, on kinases [3] (target FLT3(N841I); 1 μM), the “% Ctrl, FLT3(N841I)” value is listed as 68 % Ctrl. The “% Ctrl, RET(V804M)” value on kinases [4] (target RET(V804M); 1 μM) is recorded as 81 % Ctrl.
For `Cc1cc2c([nH]1)/C=C1\C(=O)Nc3ccc(cc31)-c1cnn(C)c1COCCN(C)C2=O` [Ex. 124, [3a(4)Z]-6,9,14-trimethyl-10,11,13,14-tetrahydro-2H-1,17-(ethanediylidene)pyrazolo[4,3-m]dipyrrolo[3,2-f:3′,4′-i][1,4]oxazacyclopentadecine-3,8(5H,9H)-dione], at kinases [1] (1 μM; KIT(A829P)), the “% Ctrl, KIT(A829P)” value came to 4.3 % Ctrl. The “% Ctrl, ABL1(F317I)-nonphosphorylated” value at kinases [2] (setting [5]) was determined as 0 % Ctrl. Also, the “% Ctrl, ABL1(F317I)-phosphorylated” value on kinases [2] (setting [6]) is on record as 1.5 % Ctrl. Also, at kinases [3] (1 μM; FLT3(N841I)), the “% Ctrl, FLT3(N841I)” value is reported as 0 % Ctrl. Besides, the “% Ctrl, RET(V804M)” value at kinases [4] (1 μM; RET(V804M)) was determined as 0.05 % Ctrl.
